Measurements: patent US12042503B2, “Compositions and methods for treating coronavirus infections” (priority 2020, dated 2024)
Several values for one entry are separate records, joined by “and”; a condition that tells them apart may be missing. Equal entries are not always repeated. Structures can show the parent of a compound that is named as a salt. Where two headings read alike, the source gives them in different places.

Experiments:
[1] = molecular target: T1, IP receptor (PTGIR) (Homo sapiens, UniProt P43119); assay: PathHunter beta-arrestin cell-based prostanoid receptor assay, IP
T1 construct: host or cells: PathHunter beta-arrestin cell line
Experimental: (§1) DiscoverX cell-based ligand binding assays were performed in the PathHunter beta-arrestin (EP1, EP2, EP3, EP4, FP, IP, and TP receptors) or cAMP Hunter™ (DP receptor) cell lines.
(§2) Receptor binding studies were performed in either the PathHunter® b-Arrestin (EP1, EP2, EP3, EP4, FP, IP, and TP receptors) or cAMP Hunter™ (DP receptor) cell lines. A 10 mM working stock of GP1681 was created in 1×PBS, pH 7.4. All assays were carried out in duplicate with 10 individual concentrations of GP1681. A three-fold dilution series of GP1681 was established for the initial or pilot experiment with a starting concentration of 4 uM (starting concentration was chosen based on previous Gemmus Pharma preclinical experimental results).
(§3) GP1681 was incubated with cells lines at either 37° C. or room temperature, for 90-180 minutes (temperatures and incubation times are all dependent on established optimized procedures for each receptor cell line) after which cell wells were processed and signal production detected. […] Vehicle only controls (PBS, pH 7.4) were also included for each receptor cell line. Receptor binding activity was analyzed using CBIS data analysis suite (ChemInnovation, CA). The percentage of activity was calculated using the following formula: % Activity=100%×(mean RLU of test sample−mean RLU of vehicle control)/(mean MAX control ligand−mean RLU of vehicle control). Dose curves were performed and EC50 values determined.

[2] = molecular target: T2, EP4 receptor (PTGER4) (Homo sapiens, UniProt P35408); assay: PathHunter β-Arrestin PTGER4 (EP4) antagonist assay against GP1681 at EC80; format: cell-based; conditions: for inhibition of GP1681 activity, in words: standard 10 μM top concentration
T2 construct: expressed in transfected cells; host or cells: PathHunter β-Arrestin PTGER4 (EP4) cell line
Experimental: This Example describes antagonist assay experiments performed with known EP4 receptor inhibitors. Agonist controls and antagonist binding studies were performed in the PathHunter® β-Arrestin PTGER4 (EP4) cell lines. The PathHunter® β-Arrestin assay monitors activation by bound ligands of a GPCR in a homogenous, non-imaging assay format using Enzyme Fragment Complementation (EFC) with β-galactosidase (β-Gal) as the functional reporter. A fresh 10 mM working stock of GP1681 was created in the vehicle (1×PBS, pH 7.4). Prior to setting up the GP1681-antagonist assays, the parameters of the GP1681 agonist assay were optimized for most efficient cellular activation and expression of the reporter molecule via GP1681 receptor (PTGER4) binding. Two different cell densities (5K vs 7.5K) and incubation temperatures (room temperature and 37 C) were evaluated in standard agonist format. […] Vehicle only controls (1×PBS, pH 7.4) were also included for each receptor cell line. Receptor binding activity was analyzed using CBIS data analysis suite (ChemInnovation Software, Inc., San Diego, CA, USA).
The percentage of activity was calculated using the following formula: % Activity=100%×(mean RLU of test sample−mean RLU of vehicle control)/(mean MAX control ligand−mean RLU of vehicle control). Dose curves were performed and EC50 values determined. In all rows, the assay was Arrestin, the assay target was PTGER4, and the result type was EC50 for all agonists, and IC50 for all antagonists. NI indicates no inhibition, N is number of replicates, K is cell density, and RT is room temperature.
All antagonist assays were carried out in duplicate with 10 individual concentrations of one of six antagonist compounds (commercially available from Cayman Chemical; Ann Arbor, MI, USA). […] For antagonist assays, data was normalized to the maximal and minimal response observed in the presence of EC80 ligand and vehicle. A three-fold dilution series of each compound was established with a parameters). […] Incubation was at 37° C. for 90-180 minutes after which cell wells were processed for signal detection. Microplates were read following signal generation with a PerkinElmer Envision™ instrument (Waltham, MA, USA) for chemiluminescent signal detection. Vehicle only controls (PBS, pH 7.4) were also included for each antagonist run. Receptor binding activity was analyzed using CBIS data analysis suite (ChemInnovation, CA, USA). […] Percentage inhibition was calculated using the following formula: % Inhibition=100%×(1−(mean RLU of test sample−mean RLU of vehicle control)/(mean RLU of EC80 control−mean RLU of vehicle control)). […] This molecule was included as a control molecule for Eurofins work.

[3] = molecular target: T3, TP receptor (TBAX2R) (Homo sapiens, UniProt P21731); assay: PathHunter beta-arrestin cell-based prostanoid receptor assay, TP; conditions: Run 1, GP1681 starting concentration 4 uM; β-Arrestin
T3 construct: host or cells: PathHunter beta-arrestin cell line
T3 sequence (P21731 1-343): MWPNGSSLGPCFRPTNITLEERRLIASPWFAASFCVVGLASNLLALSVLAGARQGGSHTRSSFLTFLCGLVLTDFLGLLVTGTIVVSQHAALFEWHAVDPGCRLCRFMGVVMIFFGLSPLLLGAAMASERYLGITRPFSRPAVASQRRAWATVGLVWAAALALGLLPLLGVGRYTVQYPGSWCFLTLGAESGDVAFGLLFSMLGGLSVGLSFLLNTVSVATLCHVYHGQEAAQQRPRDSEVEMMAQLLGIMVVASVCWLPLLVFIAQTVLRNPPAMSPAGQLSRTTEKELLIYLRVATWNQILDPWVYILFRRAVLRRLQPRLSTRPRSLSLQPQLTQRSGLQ
Experimental: as §1, §2, §3

[4] = molecular target: T4, DP1 receptor (PTGDR) (Homo sapiens, UniProt Q13258); assay: cAMP Hunter cell-based prostanoid receptor assay, DP receptor; conditions: HitHunter cAMP cell line
T4 construct: host or cells: cAMP Hunter (DP receptor) cell line
T4 sequence (Q13258 1-359): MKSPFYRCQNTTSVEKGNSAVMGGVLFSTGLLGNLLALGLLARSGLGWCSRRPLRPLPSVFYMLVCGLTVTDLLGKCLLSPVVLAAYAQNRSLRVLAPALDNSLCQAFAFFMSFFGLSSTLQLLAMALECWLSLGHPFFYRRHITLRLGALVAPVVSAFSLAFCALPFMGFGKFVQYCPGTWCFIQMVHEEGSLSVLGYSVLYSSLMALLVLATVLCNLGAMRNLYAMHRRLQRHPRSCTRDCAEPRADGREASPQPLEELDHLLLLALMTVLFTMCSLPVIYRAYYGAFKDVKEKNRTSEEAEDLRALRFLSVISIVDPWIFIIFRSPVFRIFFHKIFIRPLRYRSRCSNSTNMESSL
Experimental: as §1, §2, §3
(§4) The four assays were repeated with a higher starting concentration.
(§5) The second experimental run of the receptor binding assay was performed with these last four cell lines including GP1681 and their respective positive and negative (vehicle, PBS pH 7.4) controls. A 10 mM GP1681 working stock was again created in 1×PBS, pH 7.4. A three-fold serial dilution scheme was again used for GP1681 samples, starting this time at a concentration of 500 μM. The remainder of the second experimental run was performed in the same manner as run 1.

[5] = molecular target: T5, EP1 receptor (PTGER1) (Homo sapiens, UniProt P34995); assay: PathHunter beta-arrestin cell-based prostanoid receptor assay, EP1; conditions: β-Arrestin
T5 construct: host or cells: PathHunter beta-arrestin cell line
T5 sequence (P34995 1-402): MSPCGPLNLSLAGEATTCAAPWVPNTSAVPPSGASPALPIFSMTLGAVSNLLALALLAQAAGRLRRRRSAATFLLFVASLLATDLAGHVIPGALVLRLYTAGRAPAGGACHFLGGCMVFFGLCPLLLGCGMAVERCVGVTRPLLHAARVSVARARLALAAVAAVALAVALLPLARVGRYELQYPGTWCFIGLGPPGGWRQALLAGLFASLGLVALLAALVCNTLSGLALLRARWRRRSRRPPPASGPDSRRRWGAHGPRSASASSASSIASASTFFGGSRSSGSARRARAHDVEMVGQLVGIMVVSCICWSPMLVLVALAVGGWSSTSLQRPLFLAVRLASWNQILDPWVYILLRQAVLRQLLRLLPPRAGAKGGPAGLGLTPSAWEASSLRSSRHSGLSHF
Experimental: as §1, §2, §3, §4, §5

[6] = 5K 37C, challenge with GP1681 at EC80 (45 μM), read-out: RC50 (μM) / IC50, antagonist
[7] = 5K 37C, GP1681 at EC80, read-out: IC50 for competitive inhibition of GP1681
[8] = Run 1, GP1681 starting concentration 4 uM, curve for GP1681 not fully sigmoidal
[9] = Run 2, GP1681 starting concentration 500 μM

T2 sequence (P35408 whole entry): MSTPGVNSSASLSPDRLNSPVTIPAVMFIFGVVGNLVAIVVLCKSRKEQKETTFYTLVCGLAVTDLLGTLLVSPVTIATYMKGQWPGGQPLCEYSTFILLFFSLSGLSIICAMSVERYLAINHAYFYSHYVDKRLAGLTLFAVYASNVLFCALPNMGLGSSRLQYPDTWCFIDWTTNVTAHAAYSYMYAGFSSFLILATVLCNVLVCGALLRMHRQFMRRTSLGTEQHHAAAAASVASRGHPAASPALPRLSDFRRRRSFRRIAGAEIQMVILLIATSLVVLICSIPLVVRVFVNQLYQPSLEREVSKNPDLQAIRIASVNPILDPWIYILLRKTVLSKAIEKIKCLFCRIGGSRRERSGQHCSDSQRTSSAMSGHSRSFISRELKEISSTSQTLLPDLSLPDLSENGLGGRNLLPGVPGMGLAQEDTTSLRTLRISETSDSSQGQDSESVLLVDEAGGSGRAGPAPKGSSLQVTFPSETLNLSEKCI
T1 sequence (P43119 whole entry): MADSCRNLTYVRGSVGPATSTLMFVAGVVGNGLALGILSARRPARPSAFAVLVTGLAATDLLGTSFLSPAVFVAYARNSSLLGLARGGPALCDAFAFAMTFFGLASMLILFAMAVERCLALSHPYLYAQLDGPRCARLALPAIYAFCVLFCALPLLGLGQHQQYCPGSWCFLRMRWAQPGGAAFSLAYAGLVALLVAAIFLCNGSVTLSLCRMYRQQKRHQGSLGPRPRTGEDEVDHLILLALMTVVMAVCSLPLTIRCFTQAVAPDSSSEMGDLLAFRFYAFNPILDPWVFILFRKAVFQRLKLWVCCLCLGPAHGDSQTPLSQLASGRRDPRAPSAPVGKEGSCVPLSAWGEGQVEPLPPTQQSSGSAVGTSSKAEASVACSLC

Q: What does the source list for `CC#CCC(C)C(O)C=CC1C(O)CC2Oc3c(CCCC(=O)O)cccc3C21` (racemic) [Beraprost, 2,3,3a,8b-tetrahydro-2-hydroxyl-1-(3-hydroxyl-4-methyl-1-octen-6-ynyl)-1H-cyclopenta[b]benzofuran-5-butanoic acid, sodium salt]?
A: EC50 [1]: 0.436 µM; fold lower affinity as compared to GP1681 for the IP receptor ([1]; ratio of EC50 values): about 4 fold

Q: How did the IC50 [2, 6] turn out when `O=C(O)CC/C=C\CC[C@H]1[C@H](N2CCOCC2)C(=O)C[C@H]1OCc1ccc(-c2ccccc2)cc1` [AH 23848 (Ca salt)] was run?
A: The IC50 was greater than 10 µM.

Q: What about the “inhibition of GP1681 activity, in words” value ([2]; GP1681 at EC80) of the same molecule?
A: The value was “did not inhibit GP1681”.

Q: With `CCCCCC(O)CCC1CCC(=O)N1CCCCCCC(=O)O` (stereo not drawn) [CAY10580] as the molecule, how does the IC50 [2, 6] read?
A: Its IC50 is greater than 10 µM.

Q: What about the “complementary activity in antagonist assay, in words” value ([2]; only at 3 and 10 μM concentrations) of the same molecule?
A: The value was “low level of complementary activity”.

Q: And the “inhibition of GP1681 activity, in words” value ([2]; GP1681 at EC80)?
A: Its value is “did not inhibit activity of GP1681”.

Q: Which IC50 ([2]; IC50 for competitive inhibition of GP1681, 5K 37C, GP1681 at EC80) does the source give for `CCc1nc2c(C)nc(C)cc2n1-c1ccc(CCNC(=O)NS(=O)(=O)c2ccc(C)cc2)cc1` [CJ-023423] here?
A: The IC50 was 0.0265 µM.

Q: And the IC50 ([2]; RC50 (μM) / IC50, antagonist, 5K 37C, challenge with GP1681 at EC80 (45 μM))?
A: The IC50 was 0.0265 µM and 0.0266 µM.

Q: For `CCOc1c2c(c(OCC)c3ccccc13)C(=O)N(c1ccc(CC(=O)NS(=O)(=O)c3ccccc3)cc1)C2` [GW 627368X], which IC50 [2, 7] is on record?
A: The IC50 was 0.0442 µM.

Q: What about the IC50 [2, 6] of the same molecule?
A: Its IC50 is 0.0442 µM.

Q: For `O=C(O)CCC/C=C\C[C@@H]1[C@@H](/C=C/[C@@H](O)COc2ccc(I)cc2)[C@H]2CC[C@@H]1O2` [I-BOP, reference compound], which EC50 [3] is on record?
A: Its EC50 is 0.032 µM.

Q: `CCCCc1nn(-c2ccccc2C(F)(F)F)c(=O)n1Cc1ccc(-c2ccccc2S(=O)(=O)NC(=O)c2sccc2C)cc1` [L-161,982] was tested. Which IC50 [2, 7] did it give?
A: Its IC50 is 0.0339 µM.

Q: What about the IC50 [2, 6] of the same molecule?
A: The IC50 was 0.0339 µM.

Q: `CCCCC[C@H](O)/C=C/[C@H]1C(=O)C[C@H](O)[C@@H]1C/C=C\CCCC(=O)O` [PDG2, PGD2, reference compound] was tested. Which EC50 [4, 8] did it give?
A: Its EC50 is 0.0022 µM.

Q: And the EC50 [4, 9]?
A: Its EC50 is 0.0012 µM.

Q: Which results are given for `CCCCC[C@H](O)/C=C/[C@H]1[C@H](O)CC(=O)[C@@H]1C/C=C\CCCC(=O)O` [PGE2, Prostaglandin E2, reference compound]?
A: EC50 [5, 8]: 0.0049 µM; EC50 [5, 9]: 0.0063 µM
